Columns and labels:
[1] = tested on: IL-2 mRNA in LN cells; assay: IL-2 mRNA by real-time PCR in LN cells of GA-immunized CD-1, BALB/cByJ, SJL/J mice (Example III); format: cell-based, mouse; settings: 6 hours
Method: (§1) On Day 0, mice were immunized with 250 μg GA (GMA, Mylan Pharmaceuticals, Inc.) and CFA. The GA solution (20 mg/mL) was diluted with Dulbecco's Phosphate-Buffered Saline to 5 mg/mL. The dosing formulation consisted of equal volumes of the diluted GA solution (5 mg/mL) and CFA solution, mixed until well-emulsified. Animals were weighed and allocated to groups. Animals were dosed by injection into four footpads. The injection volume per animal was 0.1 mL (about 10 μL into each front footpad, and 40 μL into each hind footpad).
(§2) Immunized animals were euthanized by cervical dislocation on Day 10 post-immunization. Lymph node cells were isolated from animals and treated with Myelin Basic Protein (MBP, a negative control), Concanavalin A (ConA, a positive control) or GA as shown in Table 16. Lymph nodes in the axillary and popliteal regions were removed aseptically in a purifier clean bench. […] The LN were then washed 3 times with −5 mL of RPMI medium, and isolated by pressing the LN with a syringe plunger. […] The cell suspension was centrifuged at about 200×g for 10 minutes at about 4° C. and re-suspended in ice cold enriched DCCM-1 medium. Cells were seeded in 96-well tissue culture plates.
(§3) LN cells isolated from GA-immunized animals were stimulated with GA (GMA, Mylan Pharmaceuticals, Inc.) at concentrations as indicated in Tables 16 and 17. A positive control was prepared by treating LN cells with 2.5 μg/mL concavalin A (ConA, a non-specific T cell stimulant). Myelin basic protein (MBP, 10 μg/mL) and enriched DCCM-1 medium served as negative controls. The cells from all groups each were stimulated with the same GA lot. Each reaction was set up in triplicate.
(§4) After incubation at about 37° C. in a humidified CO2 incubator for 6 hours, the cells were lysed for total RNA isolation. Total RNA was isolated from treated LN cells using SV 96 Total RNA Isolation System according to the manufacturer's protocol (Promega, Cat. #Z3500). Cells were washed once with Phosphate Buffered Saline (PBS) and lysed in RNA lysis buffer. The lysate was transferred to wells of the SV 96 binding plate. Samples were washed with RNA wash solution and treated with DNase. Total RNA was eluted with nuclease-free water from the binding plate.
(§5) After the reverse transcriptase reaction was completed, cDNA samples were used directly for real-time PCR to measure the response biomarker mRNA levels produced by the stimulated cells. […] All probes for target genes contained FAM dye, and probes for the internal control contained VIC®/MGB dye. Samples will be prepared and run in 96-well plates using a Real-Time PCR system (7500, Life Technologies). This system allows direct detection of PCR-product formation by measuring the increase in fluorescent emission continuously during the PCR reaction. A relative quantitation method was used to analyze changes in mouse IL-2, IL-4, IL-5, IL-10, IL-13, IFN-γ and TNF-α expression in GA-treated samples relative to the untreated control (enriched DCCM-1 treated) samples. The Real-Time PCR program was:
(§6) The levels of mouse cytokine amplicons (IL-2, IL-4, IL-5, IL-10, IL-13, mIFN-γ and TNF-α) were normalized to internal probe levels (GAPDH) from the same samples. The following equations were used to calculate the relative increase in response to GA stimulation compared to the control sample: ΔCT=CT_target−CT_reference ΔΔCT=−ΔCT_Treated−CT_VC

[2] = tested on: IL-4 mRNA in LN cells; assay: IL-4 mRNA by real-time PCR in LN cells of GA-immunized CD-1, BALB/cByJ, SJL/J mice (Example III); format: cell-based, mouse; settings: 6 hours
Method: as §1, §2, §3, §4, §5, §6

[3] = tested on: TNF-α mRNA in LN cells; assay: TNF-α mRNA by real-time PCR in LN cells of GA-immunized CD-1, BALB/cByJ, SJL/J mice (Example III); format: cell-based, mouse; settings: 6 hours
Method: as §1, §2, §3, §4, §5, §6

[4] = tested on: mouse IL-13 mRNA in primary LN cells; assay: Mouse IL-13 mRNA in LN cells of immunized SJL/J mice stimulated with Copaxone and GMA lots, normalized to Actβ or GAPDH (Example V); format: cell-based; settings: for 1L-13 mRNA Fold Change: normalized to Actβ; for IL-13 mRNA Fold Change: normalized to GAPDH
Method: A real-time polymerase chain reaction method was used to measure the expression of cytokine mRNA in GA-stimulated LN cells from GA-immunized SJL/J mice. Normalization of expression with two different housekeeping genes, GAPDH and β-actin, was tested.
Each group consisted of six female SJL/J mice immunized by injection in all four footpads with a total dose of 250 μg of one lot of GA, or mannitol and no GA. Three Copaxone batches and three GMA batches were used to immunize the mice. CFA was included in both GA and mannitol immunizations. Ten days following immunization, LN cell samples isolated from the immunized mice were each stimulated with a concentration of a Copaxone lot and a GMA lot. A positive control of 2.5 μg/mL ConA treated LN cells and a negative control of 10 μg/mL MBP treated cells were included in each group.
Therefore, the Q-PCR analysis was repeated on the samples, measuring levels of IL-2, IL-4, IL-5, and IL-13, using both GAPDH and β-actin as reference gene.

[5] = tested on: KC (CXCL1) secreted by LN cells; assay: KC (CXCL1) secretion by GA-stimulated LN cells, MSD 9-plex ELISA (Example II); format: cell-based, mouse; settings: for KC secretion response ratio (treated cell medium to control DCCM1 medium): 21 hr
[6] = Group 1C: CD-1, GA-immunized, stimulation 2.5 μg/mL
[7] = Group 2C: BALB/cByJ, GA-immunized, stimulation 2.5 μg/mL
[8] = Group 3C: SJL/J, GA-immunized, stimulation 2.5 μg/mL
[9] = BALB/cByJ, immunized GA Lower Limb
[10] = C57BL10J, immunized GA Intraplantar
[11] = C57BL10J, immunized GA Lower Limb
[12] = Group 1C: CD-1, GA-immunized, stimulation 0.3 μg/mL
[13] = Group 1C: CD-1, GA-immunized, stimulation 1 μg/mL
[14] = Group 1C: CD-1, GA-immunized, stimulation 3 μg/mL
[15] = Group 1C: CD-1, GA-immunized, stimulation 10 μg/mL
[16] = Group 2C: BALB/cByJ, GA-immunized, stimulation 0.3 μg/mL
[17] = Group 2C: BALB/cByJ, GA-immunized, stimulation 1 μg/mL
[18] = Group 2C: BALB/cByJ, GA-immunized, stimulation 3 μg/mL
[19] = Group 2C: BALB/cByJ, GA-immunized, stimulation 10 μg/mL
[20] = Group 3C: SJL/J, GA-immunized, stimulation 0.3 μg/mL
[21] = Group 3C: SJL/J, GA-immunized, stimulation 1 μg/mL
[22] = Group 3C: SJL/J, GA-immunized, stimulation 3 μg/mL
[23] = Group 3C: SJL/J, GA-immunized, stimulation 10 μg/mL

Molecule: Concanavalin A [ConA, reference compound]
- IL-2 mRNA Expression [1, 6]: 17.1 fold change vs control
- IL-2 mRNA Expression [1, 7]: 231.7 fold change vs control
- IL-2 mRNA Expression [1, 8]: 61.9 fold change vs control
- IL-4 mRNA Expression [2, 6]: 23.8 fold change vs control
- IL-4 mRNA Expression [2, 7]: 27.2 fold change vs control
- IL-4 mRNA Expression [2, 8]: 29.2 fold change vs control
- TNF-α mRNA Expression [3, 6]: 0.6 fold change vs control
- TNF-α mRNA Expression [3, 7]: 0.8 fold change vs control
- TNF-α mRNA Expression [3, 8]: 0.7 fold change vs control
- 1L-13 mRNA Fold Change ([4]; Group ID 3, 2.5 μg/mL): 15.6 fold
- IL-13 mRNA Fold Change ([4]; Group ID 3, 2.5 μg/mL): 27.4 fold
- 1L-13 mRNA Fold Change ([4]; Group ID 4, 2.5 μg/mL): 20.4 fold
- IL-13 mRNA Fold Change ([4]; Group ID 4, 2.5 μg/mL): 34.8 fold
- KC secretion response ratio (treated cell medium to control DCCM1 medium) [5, 9]: 0.90
- KC secretion response ratio (treated cell medium to control DCCM1 medium) [5, 10]: 1.55
- KC secretion response ratio (treated cell medium to control DCCM1 medium) [5, 11]: 1.28
- KC secretion response ratio (treated cell medium to control DCCM1 medium) ([5]; CD-1, immunized GA Lower Limb): 1.65

Molecule: L-glutamic acid polymer with L-alanine, L-lysine and L-tyrosine, acetate (salt) [GA]
- IL-2 mRNA Expression [1, 12]: 1.0 fold change vs control
- IL-2 mRNA Expression [1, 13]: 1.6 fold change vs control
- IL-2 mRNA Expression [1, 14]: 2.9 fold change vs control
- IL-2 mRNA Expression [1, 15]: 4.3 fold change vs control
- IL-2 mRNA Expression [1, 16]: 4.0 fold change vs control
- IL-2 mRNA Expression [1, 17]: 11.7 fold change vs control
- IL-2 mRNA Expression [1, 18]: 27.4 fold change vs control
- IL-2 mRNA Expression [1, 19]: 38.0 fold change vs control
- IL-2 mRNA Expression [1, 20]: 1.3 fold change vs control
- IL-2 mRNA Expression [1, 21]: 4.7 fold change vs control
- IL-2 mRNA Expression [1, 22]: 11.0 fold change vs control
- IL-2 mRNA Expression [1, 23]: 22.0 fold change vs control
- IL-4 mRNA Expression [2, 12]: 1.6 fold change vs control
- IL-4 mRNA Expression [2, 13]: 4.7 fold change vs control
- IL-4 mRNA Expression [2, 14]: 6.1 fold change vs control
- IL-4 mRNA Expression [2, 15]: 11.2 fold change vs control
- IL-4 mRNA Expression [2, 16]: 4.2 fold change vs control
- IL-4 mRNA Expression [2, 17]: 6.5 fold change vs control
- IL-4 mRNA Expression [2, 18]: 10.1 fold change vs control
- IL-4 mRNA Expression [2, 19]: 9.8 fold change vs control
- IL-4 mRNA Expression [2, 20]: 2.0 fold change vs control
- IL-4 mRNA Expression [2, 21]: 5.2 fold change vs control
- IL-4 mRNA Expression [2, 22]: 10.0 fold change vs control
- IL-4 mRNA Expression [2, 23]: 15.3 fold change vs control
- TNF-α mRNA Expression [3, 12]: 1.0 fold change vs control
- TNF-α mRNA Expression [3, 13]: 1.1 fold change vs control
- TNF-α mRNA Expression [3, 14]: 1.4 fold change vs control
- TNF-α mRNA Expression [3, 15]: 1.1 fold change vs control
- TNF-α mRNA Expression [3, 16]: 0.1 fold change vs control
- TNF-α mRNA Expression [3, 17]: 1.0 fold change vs control
- TNF-α mRNA Expression [3, 18]: 0.8 fold change vs control
- TNF-α mRNA Expression [3, 19]: 0.5 fold change vs control
- TNF-α mRNA Expression [3, 20]: 0.8 fold change vs control
- TNF-α mRNA Expression [3, 21]: 0.9 fold change vs control
- TNF-α mRNA Expression [3, 22]: 0.9 fold change vs control
- TNF-α mRNA Expression [3, 23]: 0.8 fold change vs control
- IL-13 cross-potency ([4]; Copaxone: C/A, GMA: B/D, 5 μg/mL): 74.8%
- KC secretion, dose response to GA (in words) ([5]; cells from any of the three mouse strains): No dose response

B1: MBP: myelin basic protein, a negative control (protein, UniProt P02686 1-304, looked up)
Myelin basic protein: MGNHAGKRELNAEKASTNSETNRGESEKKRNLGELSRTTSEDNEVFGEADANQNNGTSSQDTAVTDSKRTADPKNAWQDAHPADPGSRPHLIRLFSRDAPGREDNTFKDRPSESDELQTIQEDSAATSESLDVMASQKRPSQRHGSKYLATASTMDHARHGFLPRHRDTGILDSIGRFFGGDRGAPKRGSGKDSHHPARTAHYGSLPQKSHGRTQDENPVVHFFKNIVTPRTPPPSQGKGRGLSLSRFSWGAEGQRPGFGYGGRASDYKSAHKGFKGVDAQGTLSKIFKLGGRDSRSGSPMARR
- IL-2 mRNA Expression [1, 15]: 0.9 fold change vs control
- IL-2 mRNA Expression [1, 19]: 2.7 fold change vs control
- IL-2 mRNA Expression [1, 23]: 0.5 fold change vs control
- IL-4 mRNA Expression [2, 15]: 0.6 fold change vs control
- IL-4 mRNA Expression [2, 19]: 1.1 fold change vs control
- IL-4 mRNA Expression [2, 23]: 0.5 fold change vs control
- TNF-α mRNA Expression [3, 15]: 0.8 fold change vs control
- TNF-α mRNA Expression [3, 19]: 0.8 fold change vs control
- TNF-α mRNA Expression [3, 23]: 0.3 fold change vs control
- 1L-13 mRNA Fold Change ([4]; Group ID 3, 10 μg/mL): 0.7 fold
- IL-13 mRNA Fold Change ([4]; Group ID 3, 10 μg/mL): 0.5 fold
- 1L-13 mRNA Fold Change ([4]; Group ID 4, 10 μg/mL): 1.0 fold
- IL-13 mRNA Fold Change ([4]; Group ID 4, 10 μg/mL): 1.2 fold
- KC secretion response ratio (treated cell medium to control DCCM1 medium) [5, 9]: 1.02
- KC secretion response ratio (treated cell medium to control DCCM1 medium) [5, 10]: 1.00
- KC secretion response ratio (treated cell medium to control DCCM1 medium) [5, 11]: 1.04
- KC secretion response ratio (treated cell medium to control DCCM1 medium) ([5]; CD-1, immunized GA Lower Limb): 1.08

Reference: US10344330B2, “Glatiramer acetate response biomarker mRNA potency assay” (Mylan Inc., priority 2013, dated 2019)
